pIC50: −log10 of the molar value.
Key:
HCT-116 = assay: Antiproliferative activity against human HCT116 cells assessed as reduction in cell growth measured after 48 hrs by CCK8 assay; type: functional, cell-based; conditions: HCT-116, 48 h
[1] = target: T1, Peptide deformylase, mitochondrial (Homo sapiens, UniProt Q9HBH1); assay: Inhibition of human PDF expressed in Escherichia coli BL21 pLysS using formyl-Met-Ala-His-Ala peptide as substrate measured after 1 hr by fluorescamine-based fluorescence assay
T1 sequence (Q9HBH1 whole entry): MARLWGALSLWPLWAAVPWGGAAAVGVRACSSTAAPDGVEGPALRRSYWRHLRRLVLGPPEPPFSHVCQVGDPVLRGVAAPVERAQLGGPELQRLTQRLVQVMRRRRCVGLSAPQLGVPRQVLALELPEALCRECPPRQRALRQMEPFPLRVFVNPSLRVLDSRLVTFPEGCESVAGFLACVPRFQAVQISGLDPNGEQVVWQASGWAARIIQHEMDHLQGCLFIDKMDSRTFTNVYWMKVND

MCF7 = assay: Antiproliferative activity against human MCF7 cells assessed as reduction in cell growth measured after 48 hrs by CCK8 assay; type: functional, cell-based; conditions: MCF7, 48 h
MCF-10A = assay: Cytotoxicity against human MCF10A cells assessed as reduction in cell growth measured after 48 hrs by CCK8 assay; type: cell-based
A549 = assay: Antiproliferative activity against human A549 cells assessed as reduction in cell growth measured after 48 hrs by CCK8 assay; type: functional, cell-based; conditions: A549, 48 h
SJSA-1 = assay: Antiproliferative activity against human SJSA1 cells assessed as reduction in cell growth measured after 48 hrs by CCK8 assay; type: functional, cell-based; conditions: SJSA-1, 48 h
HL-60 = assay: Antiproliferative activity against human HL60 cells assessed as reduction in cell growth measured after 48 hrs by CCK8 assay; type: functional, cell-based; conditions: HL-60, 48 h
[2] = target: T2, Protein deacetylase HDAC6 (Homo sapiens) (UniProt Q9UBN7); assay: Inhibition of HDAC6 (unknown origin) at 10 uM using Boc-Lys(Ac)-pNA as substrate preincubated for 20 mins followed by substrate addition and further incubated for 90 mins by fluorescence assay relative to control
T2 sequence (whole entry): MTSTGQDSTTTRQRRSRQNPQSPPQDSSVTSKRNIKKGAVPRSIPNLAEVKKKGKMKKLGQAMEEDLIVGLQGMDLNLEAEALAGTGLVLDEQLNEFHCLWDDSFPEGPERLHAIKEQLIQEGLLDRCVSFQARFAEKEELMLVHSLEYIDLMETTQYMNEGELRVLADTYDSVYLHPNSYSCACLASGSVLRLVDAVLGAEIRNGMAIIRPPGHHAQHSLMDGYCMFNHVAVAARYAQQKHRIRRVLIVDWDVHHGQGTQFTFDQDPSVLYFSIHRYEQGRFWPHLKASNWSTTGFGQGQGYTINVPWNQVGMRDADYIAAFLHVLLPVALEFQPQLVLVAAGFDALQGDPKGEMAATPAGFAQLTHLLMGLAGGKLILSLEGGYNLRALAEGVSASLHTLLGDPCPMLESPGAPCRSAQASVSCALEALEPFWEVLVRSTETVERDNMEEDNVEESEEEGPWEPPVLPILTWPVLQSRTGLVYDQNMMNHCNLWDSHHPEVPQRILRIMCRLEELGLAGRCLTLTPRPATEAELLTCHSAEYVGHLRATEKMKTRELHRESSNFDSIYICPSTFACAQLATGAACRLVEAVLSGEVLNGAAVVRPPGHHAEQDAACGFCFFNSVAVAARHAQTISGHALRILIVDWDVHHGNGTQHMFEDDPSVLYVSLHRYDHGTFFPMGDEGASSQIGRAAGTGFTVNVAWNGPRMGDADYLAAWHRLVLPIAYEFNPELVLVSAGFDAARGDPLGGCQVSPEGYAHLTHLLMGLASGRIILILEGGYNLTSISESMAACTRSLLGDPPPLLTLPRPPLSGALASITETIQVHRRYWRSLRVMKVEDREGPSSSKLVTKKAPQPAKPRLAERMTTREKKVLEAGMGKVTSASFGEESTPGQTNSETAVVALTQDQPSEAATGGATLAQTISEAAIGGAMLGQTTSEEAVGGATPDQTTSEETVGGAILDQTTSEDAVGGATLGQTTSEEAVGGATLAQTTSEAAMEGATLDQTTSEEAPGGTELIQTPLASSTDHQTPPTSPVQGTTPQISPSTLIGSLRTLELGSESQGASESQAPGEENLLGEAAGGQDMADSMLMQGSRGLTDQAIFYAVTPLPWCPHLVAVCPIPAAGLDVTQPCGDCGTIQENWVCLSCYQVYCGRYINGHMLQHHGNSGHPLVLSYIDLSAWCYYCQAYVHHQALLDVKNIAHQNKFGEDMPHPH

Histone deacetylase 1 [3] = target: T3, Histone deacetylase 1 (Homo sapiens, UniProt Q13547); assay: Inhibition of HDAC1 (unknown origin) using Boc-Lys(Ac)-pNA as substrate preincubated for 20 mins followed by substrate addition and further incubated for 90 mins by fluorescence assay
Histone deacetylase 1 [4] = target: T3, Histone deacetylase 1; assay: Inhibition of HDAC1 (unknown origin) at 10 uM using Boc-Lys(Ac)-pNA as substrate preincubated for 20 mins followed by substrate addition and further incubated for 90 mins by fluorescence assay relative to control
[5] = target: T4, Protein deacetylase HDAC6 (Homo sapiens, UniProt Q9UBN7); assay: Inhibition of HDAC6 (unknown origin) using Boc-Lys(Ac)-pNA as substrate preincubated for 20 mins followed by substrate addition and further incubated for 90 mins by fluorescence assay
T4 sequence (Q9UBN7 whole entry): T2 sequence (whole entry)

T3 sequence (Q13547 whole entry): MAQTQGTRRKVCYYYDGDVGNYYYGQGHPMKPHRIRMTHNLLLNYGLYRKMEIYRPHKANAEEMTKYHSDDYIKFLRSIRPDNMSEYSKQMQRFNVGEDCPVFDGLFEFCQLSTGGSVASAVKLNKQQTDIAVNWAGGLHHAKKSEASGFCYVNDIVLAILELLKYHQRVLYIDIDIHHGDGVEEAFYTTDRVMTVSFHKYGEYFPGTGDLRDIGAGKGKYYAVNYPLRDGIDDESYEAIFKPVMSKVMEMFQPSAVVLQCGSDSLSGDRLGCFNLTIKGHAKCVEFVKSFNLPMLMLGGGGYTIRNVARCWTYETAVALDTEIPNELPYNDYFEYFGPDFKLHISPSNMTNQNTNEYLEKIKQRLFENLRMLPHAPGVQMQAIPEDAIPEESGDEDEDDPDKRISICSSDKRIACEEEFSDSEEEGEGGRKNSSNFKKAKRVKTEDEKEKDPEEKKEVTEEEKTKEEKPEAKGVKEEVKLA

Compound | pIC50 (HCT-116) | pIC50 [1] | further results
O=C(C[C@@H](CC1CCCC1)C(=O)N1CC2(CC2)C[C@H]1C(=O)Nc1ccccc1)NO | 4.83 | 8.19 | 
Cc1cnc(NC(=O)[C@@H]2CC3(CC3)CN2C(=O)[C@@H](CC(=O)NO)CC2CCCC2)s1 | 4.73 | 8.56 | 
O=C(C[C@@H](CC1CCCC1)C(=O)N1CC2(CC2)C[C@H]1C(=O)Nc1cnccn1)NO | < 4.40 | 8.23 | 
CCCC[C@H](CC(=O)NO)C(=O)N1CC2(CC2)C[C@H]1C(=O)Nc1ccc(F)cn1 | < 4.40 | 8.31 | 
O=C(C[C@@H](CC1CCCC1)C(=O)N1CC2(CC2)C[C@H]1C(=O)Nc1cccnn1)NO | < 4.40 | 7.88 | 
Cc1cnc(NC(=O)[C@@H]2CCCN2C(=O)[C@@H](CC(=O)NO)CC2CCCC2)s1 | < 4.40 | 8.05 | 
O=C(C[C@@H](CC1CCCC1)C(=O)N1CC2(CC2)C[C@H]1C(=O)Nc1ccc(F)cn1)NO | 4.69 | 8.23 | 
O=C(C[C@@H](CC1CCCC1)C(=O)N1CC2(CC2)C[C@H]1C(=O)Nc1ccncn1)NO | < 4.40 | 8.02 | 
O=C(C[C@@H](CC1CCCC1)C(=O)N1CC2(CC2)C[C@H]1C(=O)Nc1ccc(F)cc1C(F)(F)F)NO | 4.61 | 8.15 | 
CCCC[C@H](CC(=O)NO)C(=O)N1CC2(CC2)C[C@H]1C(=O)Nc1ncc(C)s1 | < 4.40 | 8.03 | 
O=C(C[C@@H](CC1CCCC1)C(=O)N1CC2(CC2)C[C@H]1c1nc(-c2ccc(Br)cc2)no1)NO | 5.54 | 8.26 | pIC50 (MCF7): 5.45; pIC50 (MCF-10A): 4.66; pIC50 (A549): 5.58; pIC50 (SJSA-1): 5.59; pIC50 (HL-60): 5.66
O=C(C[C@@H](CC1CCCC1)C(=O)N1CC2(CC2)C[C@H]1c1nc(-c2ccc(C(F)(F)F)cc2)no1)NO | 5.39 | 8.14 | pIC50 (MCF7): 5.24; pIC50 (MCF-10A): 4.65; pIC50 (A549): 5.46; pIC50 (SJSA-1): 5.53; pIC50 (HL-60): 5.51
O=C(C[C@@H](CC1CCCC1)C(=O)N1CC2(CC2)C[C@H]1c1nc(-c2ccc(C(F)(F)F)cc2Cl)no1)NO | 5.46 | 8.19 | pIC50 (MCF7): 5.24; pIC50 (MCF-10A): 4.55; pIC50 (A549): 5.60; pIC50 (SJSA-1): 5.50; pIC50 (HL-60): 5.46
Cc1csc(NC(=O)[C@@H]2CC3(CC3)CN2C(=O)[C@@H](CC(=O)NO)CC2CCCC2)n1 | 4.54 | 8.52 | 
O=C(C[C@@H](CC1CCCC1)C(=O)N1CCC[C@H]1C(=O)Nc1ccc(F)cn1)NO | < 4.40 | 7.96 | 
CCc1ccc(-c2noc([C@@H]3CC4(CC4)CN3C(=O)[C@@H](CC(=O)NO)CC3CCCC3)n2)cc1 | 5.64 | 8.06 | pIC50 (MCF7): 5.40; pIC50 (MCF-10A): 4.70; pIC50 (A549): 5.61; pIC50 (SJSA-1): 5.55; pIC50 (HL-60): 5.73

Compound | pIC50 (HCT-116) | pIC50 [1] | further results
Cn1cc(NC(=O)[C@@H]2CC3(CC3)CN2C(=O)[C@@H](CC(=O)NO)CC2CCCC2)cn1 | < 4.40 | 7.52 | 
O=C(C[C@@H](CC1CCCC1)C(=O)N1CC2(CC2)C[C@H]1c1nc(-c2cnccn2)no1)NO | < 4.40 | 7.79 | 
O=C(C[C@@H](CC1CCCC1)C(=O)N1CC2(CC2)C[C@H]1c1nc(-c2cc(F)cc(F)c2F)no1)NO | 5.44 | 8.15 | 
O=C(C[C@@H](CC1CCCC1)C(=O)N1CC2(CC2)C[C@H]1c1nc(-c2ccc(C(F)(F)F)cc2F)no1)NO | 5.00 | 8.31 | pIC50 (MCF7): 4.97; pIC50 (MCF-10A): 4.54; pIC50 (A549): 4.99; pIC50 (SJSA-1): 5.06; pIC50 (HL-60): 5.32
C=C1C[C@@H](C(=O)Nc2ccc(F)cn2)N(C(=O)[C@@H](CC(=O)NO)CC2CCCC2)C1 | < 4.40 | 8.15 | 
Cc1ccc(NC(=O)[C@@H]2CC3(CC3)CN2C(=O)[C@@H](CC(=O)NO)CC2CCCC2)cc1 | 4.95 | 8.45 | 
O=C(C[C@@H](CC1CCCC1)C(=O)N1CC2(CC2)C[C@H]1c1nc(-c2ccccc2)no1)NO | 5.35 | 8.42 | inhibition [2]: 1.08%; pIC50 (MCF7): 5.06; pIC50 (MCF-10A): 4.49; pIC50 (A549): 5.59; pIC50 (Histone deacetylase 1 [3]): < 5.00; inhibition (Histone deacetylase 1 [4]): -0.95%; pIC50 (SJSA-1): 5.42; pIC50 [5]: < 5.00; pIC50 (HL-60): 5.45
O=C(C[C@@H](CC1CCCC1)C(=O)N1CC2(CC2)C[C@H]1C(=O)Nc1ccc(Br)cc1)NO | 5.27 | 8.21 | 
O=C(C[C@@H](CC1CCCC1)C(=O)N1CC2(CC2)C[C@H]1c1nc(-c2ccc(F)cn2)no1)NO | < 4.40 | 8.30 | 
Cc1ccc(-c2noc([C@@H]3CC4(CC4)CN3C(=O)[C@@H](CC(=O)NO)CC3CCCC3)n2)cc1 | 5.11 | 8.03 | pIC50 (MCF7): 5.00; pIC50 (MCF-10A): 4.53; pIC50 (A549): 5.06; pIC50 (SJSA-1): 5.27; pIC50 (HL-60): 5.27
O=C(C[C@@H](CC1CCCC1)C(=O)N1CC2(CC2)C[C@H]1c1nc(-c2ccc(C3CC3)cc2)no1)NO | 5.46 | 8.30 | 
Cc1noc([C@@H]2CC3(CC3)CN2C(=O)[C@@H](CC(=O)NO)CC2CCCC2)n1 | < 4.40 | 7.53 | 
O=C(C[C@@H](CC1CCCC1)C(=O)N1CC2(CC2)C[C@H]1C(=O)Nc1nccs1)NO | < 4.40 | 8.06 | 
Cc1cc(C)cc(C(=O)NOCCCCCC(=O)NO)c1 |  |  | pIC50 (Histone deacetylase 1 [3]): 7.24; pIC50 [5]: 7.92
CCCCc1ccc(-c2noc([C@@H]3CC4(CC4)CN3C(=O)[C@@H](CC(=O)NO)CC3CCCC3)n2)cc1 | 5.68 | 8.37 | 
